Results on five compounds are retold here after patent US20240002379A1, “ASYMMETRIC CONJUGATE COMPOUNDS” (Pheon Therapeutics Ltd., priority 2016, published 2024).

Where two headings read alike, the source gives them in different places.

Holding throughout (type): cell-based
Assay [1] deals with SW48 cell line (gastric). The assay is described as follows: MTT cytotoxicity assay, SW48. The following applies: Homo sapiens, SW48, MTT assay, 72 hour incubation. As to the method: (§1) Tumor cell lines were maintained in RPMI1640 medium supplemented with 10% heat-inactivated fetal bovine serum, 2 mM L-glutamine and 1 mM sodium pyruvate. 1800 cells per well were seeded in a volume of 180 μl in a 96-well flat bottom polystyrene plate. The cells were allowed to adhere overnight at 37° C. in a CO2 incubator. Ligands were initially formulated in DMSO, and stocks stored at −80° C. They were then further formulated at lox concentration in RPMI1640 medium. 20 ul of diluted samples were added into each treatment well. On each plate, blank wells with no cells, and untreated wells containing cells, were included. Plates were then cultured at 37° C. in a CO2 incubator for 72 hrs. Cytotoxicity was evaluated using a tetrazolium salt-based assay, the MTT assay. After 72 hours, the supernatant was removed from each well and 200 μl of a sterile filtered 500 μg/ml MTT solution in water added to each well. The plates were then incubated at 37° C. in a CO2 incubator for 4 hrs. The supernatant was then removed and the formazan crystals formed solubilized by adding 150 μl of DMSO to each well. The plate was then read on a plate reader at 540 nm, and percentage cell survival calculated as follows: ((mean absorbance treated wells at concentration x−mean absorbance blank wells)[…](mean absorbance untreated wells at concentration x−mean absorbance blank wells))×100. Data were plotted as concentration in nM vs. % cell survival in Microsoft Excel, and IC50 values (concentration where cell survival is reduced by a half) were determined from the graph.

The subject of assay [2] is LIM1215 cell line (gastric). The assay is described as follows: MTT cytotoxicity assay, LIM1215. The following applies: LIM1215; MTT assay, 72 hour incubation; read-out: Cytotoxicity LIM1215 (72 hours). As to the method: as §1
Assay [3] relates to SW620 cell line (gastric). Nature of the assay: MTT cytotoxicity assay, SW620. Conditions: Homo sapiens, SW-620; MTT assay, 72 hour incubation; read-out: Cytotoxicity SW620 (72 hours). As to the method: as §1
(Tetrazolium dyes change colour on reduction, which living cells bring about.)

Where [4] appears, read: read-out: Cytotoxicity SW48 (72 hrs).

For the compound `CC(C)(C)OC(=O)N1C[C@@H](CCl)c2c1cc(O)c1ccccc21` [Compound 10, tert-Butyl (S)-1-(chloromethyl)-5-hydroxy-1,2-dihydro-3H-benzo[e]indole-3-carboxylate], the results for the IC50 in assay [1] (setting [4]), in assay [2] and in assay [3] were 2920 nM, 1270 nM and 2000 nM, respectively.

For `COc1cc2c(cc1OCc1c(C(=O)N3C[C@@H](CCl)c4c3cc(O)c3ccccc43)sc3ccccc13)N=C[C@@H]1CCCCN1C2=O` [Compound 91, (S)-3-((2-((S)-1-(Chloromethyl)-5-hydroxy-2,3-dihydro-1H-benzo[e]indole-3-carbonyl)benzo[b]thiophen-3-yl)methoxy)-2-methoxy-7,8,9,10-tetrahydrobenzo[e]pyrido[1,2-a][1,4]diazepin-12(6aH)-one], the results for the IC50 in assay [1] (setting [4]), in assay [2] and in assay [3] were 2320 nM, 2210 nM and 2610 nM, respectively.

For the compound `COc1cc2c(cc1OCc1cccc(CC(=O)N3C[C@@H](CCl)c4c3cc(O)c3ccccc43)c1)N=C[C@@H]1Cc3ccccc3CN1C2=O` [Compound 108, (S)-3-((3-(2-((S)-1-(Chloromethyl)-5-hydroxy-1,2-dihydro-3H-benzo[e]indol-3-yl)-2-oxoethyl)benzyl)oxy)-2-methoxy-7,12-dihydrobenzo[5,6][1,4]diazepino[1,2-b]isoquinolin-14(6aH)-one], the results for the IC50 in assay [1] (read-out: IC50 value in SW48), in assay [2] and in assay [3] were 0.004 nM, 0.78 nM and 0.045 nM, respectively.

As for `COc1cc2c(cc1OCc1cccc(CC(=O)N3C[C@@H](CCl)c4c3cc(O)c3ccccc43)c1)NC(=O)[C@@H]1CCCCN1C2=O` [Compound 139, (S)-3-((3-(2-((S)-1-(Chloromethyl)-5-hydroxy-1,2-dihydro-3H-benzo[e]indol-3-yl)-2-oxoethyl)benzyl)oxy)-2-methoxy-7,8,9,10-tetrahydrobenzo[e]pyrido[1,2-a][1,4]diazepine-6,12(5H,6aH)-dione], the IC50 in assay [1] (setting [4]) is 0.95 nM; in assay [2], 12 nM; in assay [3], 13.5 nM.

For `COc1cc2c(cc1OCc1cccc(CC(=O)N3C[C@@H](C)c4c3cc(O)c3ccccc43)c1)N=C[C@@H]1CCCCN1C2=O` [Compound 145, (S)-3-((3-(2-((S)-5-Hydroxy-1-methyl-1,2-dihydro-3H-benzo[e]indol-3-yl)-2-oxoethyl)benzyl)oxy)-2-methoxy-7,8,9,10-tetrahydrobenzo[e]pyrido[1,2-a][1,4]diazepin-12(6aH)-one], the IC50 in assay [1] (setting [4]) came out at 32.1 nM; in assay [2], 137 nM; in assay [3], 350 nM.
